Data on 1 molecule can be found in patent publication US20110152093A1, “Herbicidal compositions comprising flufenacet” (Bayer CropScience AG, priority 2009, published 2011).

Structures are written as SMILES.

Format in all cases: in vivo
For experiment [1], the system named is MATCH (Matricaria chamomilla). Description: Action under various soil conditions (soil types), test method 7. The conditions noted are these: g of AS/ha: (A) 90, (B) 1200, (C) 140, (A)+(B)+(C) 90 + 1200 + 140. The protocol:
(§1) In the standard design of the test, seeds of various broad-leaved weed and weed grass biotypes (origins) were sown in a 8-13 cm diameter pot filled with natural soil of a standard field soil (loamy silt; non-sterile) and covered with a covering soil layer of about 1 cm. The pots were then cultivated in a greenhouse (12-16 h of light, temperature day 20-22° C., night 15-18° C.) until the time of application. The pots were treated on a laboratory track sprayer with spray liquors comprising the compositions according to the invention, mixtures of the prior art or components used individually. Application of the active compounds or active compound combinations formulated as WG, WP, EC or otherwise was carried out at the appropriate growth stages of the plants. The application rate for the spray application was 100-600 l of water/ha. After the treatment, the plants were returned to the greenhouses.
(§2) About 3 weeks after the application, the soil action or/and foliar action was assessed visually according to a scale of 0-100% in comparison to an untreated comparative group: 0%=no noticeable effect compared to the untreated comparative group; 100%=full effect compared to the untreated comparative group.
(notes: the term “seeds” also includes vegetative propagation forms such as, for example, rhizome pieces; abbreviations used: h light=hours of illumination, g of AS/ha=gram of active substance per hectare, l/ha=liter per hectare, S=sensitive, R=resistant) • 1. Pre-emergence action against weeds: seeds of various broad-leaved weed and weed grass biotypes (origins) were sown in a 8-13 cm diameter pot filled with natural soil of a standard field soil (loamy silt; non-sterile) and covered with a covering soil layer of about 1 cm. The pots were then cultivated in a greenhouse (12-16 h of light, temperature day 20-22° C., night 15-18° C.) until the time of application. The pots were treated at the BBCH stage 00-10 of the seeds/plants on a laboratory track sprayer with spray liquors comprising the compositions according to the invention, mixtures or components used individually, as WG, WP, EC or other formulations. The application rate for the spray application was 100-600 l of water/ha. After the treatment, the plants were returned to the greenhouses and, when required, treated with fertilizer and watered. • 2. Post-emergence action against weeds: seeds of various broad-leaved weed and weed grass biotypes (origins) were sown in a 8-13 cm diameter pot filled with natural soil of a standard field soil (loamy silt; non-sterile) and covered with a covering soil layer of about 1 cm. The pots were then cultivated in a greenhouse (12-16 h of light, temperature day 20-22° C., night 15-18° C.) until the time of application. The pots were treated at various BBCH stages between 11-25 of the seeds/plants, i.e. generally between two to three weeks after the start of the cultivation, on a laboratory track sprayer with spray liquors comprising the compositions according to the invention, mixtures or components used individually, as WG, WP, EC or other formulations. The application rate for the spray application was 100-600 l of water/ha. After the treatment, the plants were returned to the greenhouses and, when required, treated with fertilizer and watered. • 3. Selective pre-emergence action: seeds of various crop species (origins) were sown in a 8-13 cm diameter pot filled with natural soil of a standard field soil (loamy silt; non-sterile) and covered with a covering soil layer of about 1 cm. The pots were then cultivated in a greenhouse (12-16 h of light, temperature day 20-22° C., night 15-18° C.) until the time of application. The pots were treated at the BBCH stage 00-10 of the seeds/plants on a laboratory track sprayer with spray liquors comprising the compositions according to the invention, mixtures or components used individually, as WG, WP, EC or other formulations. The application rate for the spray application was 100-600 l of water/ha. […]

In experiment [2] the test system is AVEFA (Avena fatua). Description: Pre-emergence (PE) action against weeds, greenhouse trial, test method 1. The following applies: PE application; g of AS/ha: (A) 90, (B) 1200, (C) 140, (A)+(B)+(C) 90 + 1200 + 140. On the procedure:
as §1
(§3) About 3 weeks after the application, the soil action or/and foliar action was assessed visually according to a scale of 0-100% in comparison to an untreated comparative group: 0%=no noticeable effect compared to the untreated comparative group; 100%=full effect compared to the untreated comparative group. […]

The subject of experiment [3] is MATCH (Matricaria chamomilla). Described as above. The following applies: PE application; g of AS/ha: (A) 90, (B) 1200, (C) 140, (A)+(B)+(C) 90 + 1200 + 140. On the procedure:
as §1, §3

In experiment [4] the test system is HORVS (Hordeum vulgare, summer barley). In words: PE crop selectivity at different sowing depths, test method 9. The following applies: PE application, g of AS/ha: (A) 90, (B) 1200, (C) 140, (A)+(B)+(C) 90 + 1200 + 140. The protocol:
as §1, §3

Experiment [5] has as its system MATCH (Matricaria chamomilla). Description: PE action at different sowing depths, test method 9. The following applies: PE application, g of AS/ha: (A) 90, (B) 1200, (C) 140, (A)+(B)+(C) 90 + 1200 + 140. The protocol:
as §1, §3

Experiment [6] deals with HORVS (Hordeum vulgare, summer barley). In words: Action under various soil conditions (soil types), test method 7, crop compatibility. The following applies: g of AS/ha: (A) 90, (B) 1200, (C) 140, (A)+(B)+(C) 90 + 1200 + 140. The protocol:
as §1, §2
(§4) (notes: the term “seeds” also includes vegetative propagation forms such as, for example, rhizome pieces; abbreviations used: h light=hours of illumination, g of AS/ha=gram of active substance per hectare, l/ha=liter per hectare, S=sensitive, R=resistant) • 1. Pre-emergence action against weeds: seeds of various broad-leaved weed and weed grass biotypes (origins) were sown in a 8-13 cm diameter pot filled with natural soil of a standard field soil (loamy silt; non-sterile) and covered with a covering soil layer of about 1 cm. The pots were then cultivated in a greenhouse (12-16 h of light, temperature day 20-22° C., night 15-18° C.) until the time of application. The pots were treated at the BBCH stage 00-10 of the seeds/plants on a laboratory track sprayer with spray liquors comprising the compositions according to the invention, mixtures or components used individually, as WG, WP, EC or other formulations. The application rate for the spray application was 100-600 l of water/ha. After the treatment, the plants were returned to the greenhouses and, when required, treated with fertilizer and watered. • 2. Post-emergence action against weeds: seeds of various broad-leaved weed and weed grass biotypes (origins) were sown in a 8-13 cm diameter pot filled with natural soil of a standard field soil (loamy silt; non-sterile) and covered with a covering soil layer of about 1 cm. The pots were then cultivated in a greenhouse (12-16 h of light, temperature day 20-22° C., night 15-18° C.) until the time of application. The pots were treated at various BBCH stages between 11-25 of the seeds/plants, i.e. generally between two to three weeks after the start of the cultivation, on a laboratory track sprayer with spray liquors comprising the compositions according to the invention, mixtures or components used individually, as WG, WP, EC or other formulations. The application rate for the spray application was 100-600 l of water/ha. After the treatment, the plants were returned to the greenhouses and, when required, treated with fertilizer and watered. • 3. […]

For experiment [7] the test system is unchanged. Description: Selective pre-emergence action (crop compatibility), greenhouse trial, test method 3. The conditions noted are these: PE application; g of AS/ha: (A) 90, (B) 1200, (C) 140, (A)+(B)+(C) 90 + 1200 + 140. On the procedure:
as §1, §3

A further experiment deals with POAAN (Poa annua). Description: Post-emergence (PO) action against weeds, greenhouse trial, test method 2. The conditions noted are these: PO application; g of AS/ha: (A) 240, (B) 1200, (C) 140, (A)+(B)+(C) 240 + 1200 + 140. The protocol: as §1, §2, §4
The next experiment has as its system VIOAR (Viola arvensis). The description is as above. The following applies: PO application; g of AS/ha: (A) 240, (B) 1200, (C) 140, (A)+(B)+(C) 240 + 1200 + 140. On the procedure:
as §1, §2, §4

For experiment [8], the system named is AVEFA (Avena fatua). In words: PE action at different soil pH values, test method 10. The conditions noted are these: PE application, g of AS/ha: (A) 90, (B) 1200, (C) 140, (A)+(B)+(C) 90 + 1200 + 140. On the procedure: as §1, §2
The subject of experiment [9] is HORVS (Hordeum vulgare, summer barley). Description: Selective post-emergence action (crop compatibility), greenhouse trial, test method 4. The following applies: PO application; g of AS/ha: (A) 240, (B) 1200, (C) 140, (A)+(B)+(C) 240 + 1200 + 140. On the procedure: as §1, §2
(notes: the term “seeds” also includes vegetative propagation forms such as, for example, rhizome pieces; abbreviations used: h light=hours of illumination, g of AS/ha=gram of active substance per hectare, l/ha=liter per hectare, S=sensitive, R=resistant) • 1. Pre-emergence action against weeds: seeds of various broad-leaved weed and weed grass biotypes (origins) were sown in a 8-13 cm diameter pot filled with natural soil of a standard field soil (loamy silt; non-sterile) and covered with a covering soil layer of about 1 cm. The pots were then cultivated in a greenhouse (12-16 h of light, temperature day 20-22° C., night 15-18° C.) until the time of application. […]

In the case of `CCC(CC)Nc1c([N+](=O)[O-])cc(C)c(C)c1[N+](=O)[O-]` [(B) pendimethalin, N-(1-ethylpropyl)-3,4-dimethyl-2,6-dinitrobenzenamine], the “activity MATCH IU soil” value in experiment [1] (IU soil) is 10%. For the same molecule, in experiment [1] (IU/EC73 soil), the “activity MATCH IU/EC73 soil” value came out at 0%. The “activity AVEFA” value in the experiment with AVEFA (Avena fatua) [2] amounted to 40%. Also, in experiment [3], the “activity MATCH” value is listed as 18%. For the same molecule, in [4] (sowing depth 5 mm), the “activity HORVS 5 mm (crop plant)” value is on record as 30%. Further, the “activity HORVS 20 mm (crop plant)” value in experiment [4] (sowing depth 20 mm) is reported as 20%. Moreover, the “activity MATCH 5 mm” value in experiment [5] (sowing depth 5 mm) came out at 0%. For the same molecule, the “activity MATCH 20 mm” value in experiment [5] (sowing depth 20 mm) amounted to 30%. Besides, the “activity HORVS IU soil (crop plant)” value in experiment [6] (IU soil) came out at 0%. In [6] (IU/EC73 soil), the “activity HORVS IU/EC73 soil (crop plant)” value turned out to be 0%. The “activity HORVS (crop plant)” value in experiment [7] is 50%. Moreover, the “activity POAAN (visual, scale 0-100%)” value in the experiment with POAAN (Poa annua) is recorded as 0%. Also, in the experiment with VIOAR (Viola arvensis), the “activity VIOAR (visual, scale 0-100%)” value is on record as 30%. Also, in the experiment with AVEFA (Avena fatua) [8] (soil pH 7.4), the “activity AVEFA pH 7.4” value worked out at 10%. For the same molecule, in the experiment on AVEFA (Avena fatua) [8] (soil pH 8.4), the “activity AVEFA pH 8.4” value is 30%. Besides, the “activity HORVS (crop plant; visual, scale 0-100%)” value in experiment [9] was 10%.
